Experimental data reported in PubChem BioAssay AID1963966 (Molecular Pharmacology Branch, DTP, NCI, 2024).

Test system: 935938-334-R-J1-PDC spheroids with HUVEC/MSC, viability
Test: Anticancer human tumor 935938-334-R-J1-PDC patient-derived small intestine adenocarcinoma cell line growth inhibition [PI3K]
Details: for IC50: curve of first compound; for viability, T/C: stronger effect = lower value
In short: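 High-throughput combination screen: PI3K inhibitors crossed with targeted small molecules on complex spheroids of tumor cells, HUVEC and MSCs at 37 degrees C, 5% CO2. Top concentration was at or near clinical Cmax (otherwise 10 microM), with half-log decrements.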

[1] = second compound 0.0316 µM, first compound 0.0316 µM
[2] = second compound 0.0316 µM, first compound 0.1 µM
[3] = second compound 0.0316 µM, first compound 0.316 µM
[4] = second compound 0.0316 µM, first compound 1 µM
[5] = second compound 0.0316 µM, first compound 3.16 µM
[6] = second compound 0.0316 µM, first compound 10 µM
[7] = second compound 0.1 µM, first compound 0.0316 µM
[8] = second compound 0.1 µM, first compound 0.1 µM
[9] = second compound 0.1 µM, first compound 0.316 µM
[10] = second compound 0.1 µM, first compound 1 µM
[11] = second compound 0.1 µM, first compound 3.16 µM
[12] = second compound 0.1 µM, first compound 10 µM
[13] = second compound 0.316 µM, first compound 0.0316 µM
[14] = second compound 0.316 µM, first compound 0.1 µM
[15] = second compound 0.316 µM, first compound 0.316 µM
[16] = second compound 0.316 µM, first compound 1 µM
[17] = second compound 0.316 µM, first compound 3.16 µM
[18] = second compound 0.316 µM, first compound 10 µM
[19] = second compound 1 µM, first compound 0.0316 µM
[20] = second compound 1 µM, first compound 0.1 µM
[21] = second compound 1 µM, first compound 0.316 µM
[22] = second compound 1 µM, first compound 1 µM
[23] = second compound 1 µM, first compound 3.16 µM
[24] = second compound 1 µM, first compound 10 µM
[25] = second compound 3.16 µM, first compound 0.0316 µM
[26] = second compound 3.16 µM, first compound 0.1 µM
[27] = second compound 3.16 µM, first compound 0.316 µM
[28] = second compound 3.16 µM, first compound 1 µM
[29] = second compound 3.16 µM, first compound 3.16 µM
[30] = second compound 3.16 µM, first compound 10 µM
[31] = second compound 10 µM, first compound 0.0316 µM
[32] = second compound 10 µM, first compound 0.1 µM
[33] = second compound 10 µM, first compound 0.316 µM
[34] = second compound 10 µM, first compound 1 µM
[35] = second compound 10 µM, first compound 3.16 µM
[36] = second compound 10 µM, first compound 10 µM
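Note: compound exposure lasted seven days before viability was read.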
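Throughout, for viability, T/C: percent of vehicle DMSO treated spheroid viability so 100% = untreated.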

C=CC(=O)N1CCN(c2nc(=O)n(-c3c(C)ccnc3C(C)C)c3nc(-c4c(O)cccc4F)c(F)cc23)C(C)C1 (stereo not drawn) + Cc1nc(NC(=O)N2CCCC2C(N)=O)sc1-c1ccnc(C(C)(C)C(F)(F)F)c1
IC50 (second compound 0.0316 µM): > 10 µM
IC50 (second compound 0.1 µM): > 10 µM
IC50 (second compound 0.316 µM): > 10 µM
IC50 (second compound 1 µM): > 10 µM
IC50 (second compound 3.16 µM): > 10 µM
IC50 (second compound 10 µM): < 0.0316 µM
viability, T/C [1]: 73%
viability, T/C [2]: 92.1%
viability, T/C [3]: 88%
viability, T/C [4]: 98.7%
viability, T/C [5]: 85.7%
viability, T/C [6]: 86.8%
viability, T/C [7]: 79.2%
viability, T/C [8]: 76.2%
viability, T/C [9]: 91.2%
viability, T/C [10]: 60.7%
viability, T/C [11]: 79.5%
viability, T/C [12]: 95.8%
viability, T/C [13]: 91%
viability, T/C [14]: 96%
viability, T/C [15]: 74.2%
viability, T/C [16]: 69.5%
viability, T/C [17]: 72.7%
viability, T/C [18]: 92.3%
viability, T/C [19]: 68.4%
viability, T/C [20]: 64%
viability, T/C [21]: 60.5%
viability, T/C [22]: 68.7%
viability, T/C [23]: 77.3%
viability, T/C [24]: 47.4%
viability, T/C [25]: 48.4%
viability, T/C [26]: 55.1%
viability, T/C [27]: 45.1%
viability, T/C [28]: 57.1%
viability, T/C [29]: 64.7%
viability, T/C [30]: 42.5%
viability, T/C [31]: 43.2%
viability, T/C [32]: 40.1%
viability, T/C [33]: 47.3%
viability, T/C [34]: 36.5%
viability, T/C [35]: 35%
viability, T/C [36]: 32.2%

CC(Cn1ccc(-c2ccc(C#N)c(Cl)c2)n1)NC(=O)c1cc(C(C)O)[nH]n1 (stereo not drawn) + Cc1nc(NC(=O)N2CCCC2C(N)=O)sc1-c1ccnc(C(C)(C)C(F)(F)F)c1
IC50 (second compound 0.0316 µM): > 10 µM
IC50 (second compound 0.1 µM): > 10 µM
IC50 (second compound 0.316 µM): > 10 µM
IC50 (second compound 1 µM): > 10 µM
IC50 (second compound 3.16 µM): 0.4 µM
IC50 (second compound 10 µM): < 0.0316 µM
viability, T/C [1]: 81.8%
viability, T/C [2]: 101%
viability, T/C [3]: 89.8%
viability, T/C [4]: 91%
viability, T/C [5]: 104%
viability, T/C [6]: 78.3%
viability, T/C [7]: 109%
viability, T/C [8]: 72.3%
viability, T/C [9]: 99.4%
viability, T/C [10]: 77.2%
viability, T/C [11]: 97.6%
viability, T/C [12]: 75.6%
viability, T/C [13]: 81.8%
viability, T/C [14]: 81.6%
viability, T/C [15]: 58.5%
viability, T/C [16]: 82%
viability, T/C [17]: 75.5%
viability, T/C [18]: 84.8%
viability, T/C [19]: 79.2%
viability, T/C [20]: 79.6%
viability, T/C [21]: 62.3%
viability, T/C [22]: 65%
viability, T/C [23]: 64.6%
viability, T/C [24]: 47.7%
viability, T/C [25]: 62.7%
viability, T/C [26]: 61%
viability, T/C [27]: 50.3%
viability, T/C [28]: 44.3%
viability, T/C [29]: 59.4%
viability, T/C [30]: 43.9%
viability, T/C [31]: 46.3%
viability, T/C [32]: 42.6%
viability, T/C [33]: 52.3%
viability, T/C [34]: 51.8%
viability, T/C [35]: 44.3%
viability, T/C [36]: 40%

Cn1ncc(Cl)c1-c1cc(C(=O)NC(CN)Cc2cccc(F)c2)sc1Cl (stereo not drawn) + Cc1nc(NC(=O)N2CCCC2C(N)=O)sc1-c1ccnc(C(C)(C)C(F)(F)F)c1
IC50 (second compound 0.0316 µM): 3.01 µM
IC50 (second compound 0.1 µM): 0.743 µM
IC50 (second compound 0.316 µM): 0.776 µM
IC50 (second compound 1 µM): 0.266 µM
IC50 (second compound 3.16 µM): 0.144 µM
IC50 (second compound 10 µM): < 0.0316 µM
viability, T/C [1]: 83.4%
viability, T/C [2]: 87.5%
viability, T/C [3]: 61.9%
viability, T/C [4]: 67.4%
viability, T/C [5]: 38.1%
viability, T/C [6]: 52.8%
viability, T/C [7]: 100%
viability, T/C [8]: 77.2%
viability, T/C [9]: 60.4%
viability, T/C [10]: 45.9%
viability, T/C [11]: 37%
viability, T/C [12]: 24.3%
viability, T/C [13]: 90.7%
viability, T/C [14]: 67.3%
viability, T/C [15]: 60.6%
viability, T/C [16]: 45.1%
viability, T/C [17]: 43.3%
viability, T/C [18]: 26.8%
viability, T/C [19]: 48.2%
viability, T/C [20]: 62.4%
viability, T/C [21]: 42.6%
viability, T/C [22]: 46.9%
viability, T/C [23]: 35.7%
viability, T/C [24]: 23.8%
viability, T/C [25]: 53.5%
viability, T/C [26]: 62.5%
viability, T/C [27]: 34.4%
viability, T/C [28]: 38%
viability, T/C [29]: 27.1%
viability, T/C [30]: 22.4%
viability, T/C [31]: 37.9%
viability, T/C [32]: 35.8%
viability, T/C [33]: 39.2%
viability, T/C [34]: 39%
viability, T/C [35]: 28.1%
viability, T/C [36]: 26.7%

Cn1nccc1Nc1nccc(-c2ccn(C(CO)c3ccc(Cl)c(F)c3)c(=O)c2)n1 (stereo not drawn) + Cc1nc(NC(=O)N2CCCC2C(N)=O)sc1-c1ccnc(C(C)(C)C(F)(F)F)c1
IC50 (second compound 0.0316 µM): 0.805 µM
IC50 (second compound 0.1 µM): 0.973 µM
IC50 (second compound 0.316 µM): 0.315 µM
IC50 (second compound 1 µM): 0.211 µM
IC50 (second compound 3.16 µM): 0.0468 µM
IC50 (second compound 10 µM): < 0.0316 µM
viability, T/C [1]: 92.1%
viability, T/C [2]: 80.5%
viability, T/C [3]: 61%
viability, T/C [4]: 48.5%
viability, T/C [5]: 36.2%
viability, T/C [6]: 31.6%
viability, T/C [7]: 100%
viability, T/C [8]: 73.5%
viability, T/C [9]: 62%
viability, T/C [10]: 53.4%
viability, T/C [11]: 38.6%
viability, T/C [12]: 25.1%
viability, T/C [13]: 94.1%
viability, T/C [14]: 71%
viability, T/C [15]: 48.2%
viability, T/C [16]: 39.3%
viability, T/C [17]: 25%
viability, T/C [18]: 25.6%
viability, T/C [19]: 62.2%
viability, T/C [20]: 75.7%
viability, T/C [21]: 39.7%
viability, T/C [22]: 26%
viability, T/C [23]: 25.8%
viability, T/C [24]: 19.2%
viability, T/C [25]: 50.6%
viability, T/C [26]: 51.3%
viability, T/C [27]: 33.1%
viability, T/C [28]: 37.4%
viability, T/C [29]: 20.8%
viability, T/C [30]: 18.7%
viability, T/C [31]: 43.9%
viability, T/C [32]: 48%
viability, T/C [33]: 28.6%
viability, T/C [34]: 22.2%
viability, T/C [35]: 20.8%
viability, T/C [36]: 19.9%
